Experimental data taken from the NIST ThermoML archive (doi:10.1021/acs.jced.5b01000).

Experiments:
[1] = xn = mol fraction of the nth substance listed; conditions: 99 kPa, Liquid; for viscosity: Capillary tube (Ostwald / Ubbelohde) method; for speed of sound: Frequency=3 MHz, Sing-around technique in a fixed-path interferometer; for mass density: Vibrating tube method
[2] = refractive index (Na D-line) (dimensionless); xn = mol fraction of the nth substance listed; conditions: 99 kPa, Liquid, Standard Abbe refractometry

CC(=O)N(C)C [N,N-dimethylethanamide] + CO
Conditions | mass density, [1] [kg/m3] | refractive index, [2] | speed of sound, [1] [m/s] | viscosity, [1] [mPa·s]
283.15 K, x1 = 0.0602 | 823.325 | 1.34879 | 1204.4 | 0.7266
283.15 K, x1 = 0.1088 | 838.649 | 1.35969 | 1242 | 0.7638
283.15 K, x1 = 0.2079 | 864.147 | 1.37803 | 1305.6 | 0.831
283.15 K, x1 = 0.304 | 883.509 | 1.39207 | 1353.4 | 0.892
283.15 K, x1 = 0.4055 | 899.792 | 1.40414 | 1394 | 0.9491
283.15 K, x1 = 0.5011 | 912.039 | 1.41331 | 1424.8 | 0.9971
283.15 K, x1 = 0.6014 | 922.607 | 1.42138 | 1450.4 | 1.041
283.15 K, x1 = 0.7036 | 931.645 | 1.42811 | 1473.1 | 1.083
283.15 K, x1 = 0.803 | 938.688 | 1.43369 | 1489.2 | 1.117
283.15 K, x1 = 0.9076 | 945.177 | 1.43878 | 1505 | 1.149
283.15 K, x1 = 0.9502 | 947.535 | 1.4407 | 1510.7 | 1.158
283.15 K, x1 = 1 | 950.131 | 1.44273 | 1516.8 | 1.168
298.15 K, x1 = 0.0602 | 809.208 | 1.3423 | 1154.4 | 0.5868
298.15 K, x1 = 0.1088 | 824.553 | 1.35319 | 1190.7 | 0.6156
298.15 K, x1 = 0.2079 | 849.999 | 1.37142 | 1250.8 | 0.6706
298.15 K, x1 = 0.304 | 869.253 | 1.38536 | 1297.1 | 0.7197
298.15 K, x1 = 0.4055 | 885.574 | 1.39737 | 1336 | 0.764
298.15 K, x1 = 0.5011 | 897.92 | 1.40652 | 1365.2 | 0.8017
298.15 K, x1 = 0.6014 | 908.603 | 1.41458 | 1391.2 | 0.8364
298.15 K, x1 = 0.7036 | 917.769 | 1.42131 | 1413.5 | 0.8692
298.15 K, x1 = 0.803 | 924.814 | 1.42684 | 1429.2 | 0.8941
298.15 K, x1 = 0.9076 | 931.291 | 1.43186 | 1443.4 | 0.9147
298.15 K, x1 = 0.9502 | 933.67 | 1.43378 | 1449.2 | 0.9232
298.15 K, x1 = 1 | 936.289 | 1.43579 | 1453.7 | 0.9299
313.15 K, x1 = 0.0602 | 794.82 | 1.33598 | 1103.1 | 0.479
313.15 K, x1 = 0.1088 | 810.116 | 1.3468 | 1138.1 | 0.5045
313.15 K, x1 = 0.2079 | 835.563 | 1.36494 | 1196.3 | 0.5501
313.15 K, x1 = 0.304 | 854.874 | 1.37881 | 1240.7 | 0.5911
313.15 K, x1 = 0.4055 | 871.236 | 1.39075 | 1278.3 | 0.6287
313.15 K, x1 = 0.5011 | 883.681 | 1.39987 | 1306.9 | 0.6592
313.15 K, x1 = 0.6014 | 894.459 | 1.40791 | 1332.7 | 0.689
313.15 K, x1 = 0.7036 | 903.693 | 1.4146 | 1353 | 0.7156
313.15 K, x1 = 0.803 | 910.885 | 1.42013 | 1370.2 | 0.7362
313.15 K, x1 = 0.9076 | 917.391 | 1.42511 | 1383.7 | 0.7539
313.15 K, x1 = 0.9502 | 919.775 | 1.42701 | 1388.9 | 0.7607
313.15 K, x1 = 1 | 922.429 | 1.42901 | 1393.3 | 0.7644
